The experiment addresses Carbonic anhydrase 9 (Homo sapiens, UniProt Q16790). Description: Inhibition of recombinant human carbonic anhydrase 9 by stopped-flow CO2 hydration assay.

These results are taken from ChEMBL document CHEMBL4808229, “Privileged scaffolds in medicinal chemistry: Studies on pyrazolo[1,5-a]pyrimidines on sulfonamide containing Carbonic Anhydrase inhibitors” (Bioorg Med Chem Lett, 2021).

What is called Ki is the dissociation constant of the complex between target and ligand, obtained from inhibition or displacement.

`CCOC(=O)c1cnc2c(NC(=S)NCc3ccc(S(N)(=O)=O)cc3)cnn2c1C`: the Ki was determined as 23 nM.
Take `CCOC(=O)c1cnc2c(NC(=O)c3ccc(Cl)c(S(N)(=O)=O)c3)cnn2c1C`: the inhibition constant (Ki) turned out to be 6.5 nM.
Then `CCOC(=O)c1cnc2c(NC(=S)Nc3cccc(S(N)(=O)=O)c3)cnn2c1C`, with 312 nM; and `Cc1c(C(=O)O)cnc2c(NC(=O)Nc3ccc(S(N)(=O)=O)cc3)cnn12`, with 851 nM.
As for `Cc1c(C(=O)O)cnc2c(NC(=O)NCc3ccc(S(N)(=O)=O)cc3)cnn12`, the Ki was found to be 703 nM.
With `CCOC(=O)c1cnc2c(NC(=O)NCc3ccc(S(N)(=O)=O)cc3)cnn2c1C`, the Ki was 9.7 nM.
Consider `CCOC(=O)c1cnc2c(NC(=S)NCCc3ccc(S(N)(=O)=O)cc3)cnn2c1C`, for which the Ki turned out to be 919 nM.
For `CCOC(=O)c1cnc2c(NC(=S)Nc3ccc(S(N)(=O)=O)cc3)cnn2c1C` the value was 680 nM; for `Cc1c(C(=O)O)cnc2c(NC(=O)c3ccc(S(N)(=O)=O)cc3)cnn12`, 142 nM.
Turning to `CCOC(=O)c1cnc2c(NC(=O)NCCc3ccc(S(N)(=O)=O)cc3)cnn2c1C`, the Ki came out at 975 nM.
For `Cc1c(C(=O)O)cnc2c(NC(=O)Nc3cccc(S(N)(=O)=O)c3)cnn12` the value was 523 nM.
As for `Cc1c(C(=O)O)cnc2c(NC(=O)NCCc3ccc(S(N)(=O)=O)cc3)cnn12`, the Ki was 212 nM.
With `CCOC(=O)c1cnc2c(NC(=O)c3ccc(S(N)(=O)=O)cc3)cnn2c1C`, the Ki is 142 nM.
Take `CCOC(=O)c1cnc2c(NC(=O)N/C=C/c3ccc(S(N)(=O)=O)cc3)cnn2c1C`: the Ki was 843 nM.
